ChEMBL document CHEMBL1681653, “Synthesis of N-alkylated noeurostegines and evaluation of their potential as treatment for Gaucher's disease” (Bioorg Med Chem Lett, 2011)
Residue numbers refer to the chain shown, from its start. Activity calls are given as the source filed them. No cut-off for these calls is given here.

What was measured:
[1] = test system: T1, Lysosomal acid glucosylceramidase (Homo sapiens), P04062 [N409S]; test: Activation of beta-glucocerebrosidase in human N370S cells assessed as increase of residual activity at 0.05 to 100 uM after 3 days; assay type: cell-based
T1 sequence (whole entry): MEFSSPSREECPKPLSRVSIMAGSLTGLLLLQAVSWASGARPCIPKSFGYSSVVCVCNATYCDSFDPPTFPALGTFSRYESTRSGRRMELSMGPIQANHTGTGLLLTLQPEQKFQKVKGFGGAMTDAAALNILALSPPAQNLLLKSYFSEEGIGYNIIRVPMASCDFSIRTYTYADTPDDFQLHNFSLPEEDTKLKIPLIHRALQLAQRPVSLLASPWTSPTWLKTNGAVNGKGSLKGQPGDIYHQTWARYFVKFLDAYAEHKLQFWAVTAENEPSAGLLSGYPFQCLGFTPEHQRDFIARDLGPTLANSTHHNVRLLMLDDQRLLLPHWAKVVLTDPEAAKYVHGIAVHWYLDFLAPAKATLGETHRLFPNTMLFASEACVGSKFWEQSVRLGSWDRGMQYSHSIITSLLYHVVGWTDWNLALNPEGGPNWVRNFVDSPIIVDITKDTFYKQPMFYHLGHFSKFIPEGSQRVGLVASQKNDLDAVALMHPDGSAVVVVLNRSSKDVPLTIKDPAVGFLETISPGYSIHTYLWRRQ

[2] = molecular target: T2, Lysosomal acid glucosylceramidase (Homo sapiens, UniProt P04062); test: Inhibition of partially purified human placental beta-glucocerebrosidase after 15 to 60 mins
T2 sequence (P04062 whole entry): T1 sequence (whole entry) with S409N

[3] = species on record: Rattus norvegicus; test: Inhibition of rat liver alpha-glucosidase 2 assessed as conversion of Glc2Man7GlcNAc2 to Man7GlcNAc2 at 500 uM after 1.25 hrs
[4] = test system: HL-60; test: Inhibition of endoplasmic reticulum alpha-glucosidase 1 in human HL-60 cells assessed as free oligosaccharide level at 500 uM after 24 hrs; assay type: cell-based
[5] = molecular target: T3, Neutral alpha-glucosidase AB (Homo sapiens) (UniProt Q14697); test: Inhibition of endoplasmic reticulum alpha-glucosidase 2 in human HL-60 cells assessed as free oligosaccharide level at 500 uM after 24 hrs; assay type: cell-based
T3 sequence (whole entry): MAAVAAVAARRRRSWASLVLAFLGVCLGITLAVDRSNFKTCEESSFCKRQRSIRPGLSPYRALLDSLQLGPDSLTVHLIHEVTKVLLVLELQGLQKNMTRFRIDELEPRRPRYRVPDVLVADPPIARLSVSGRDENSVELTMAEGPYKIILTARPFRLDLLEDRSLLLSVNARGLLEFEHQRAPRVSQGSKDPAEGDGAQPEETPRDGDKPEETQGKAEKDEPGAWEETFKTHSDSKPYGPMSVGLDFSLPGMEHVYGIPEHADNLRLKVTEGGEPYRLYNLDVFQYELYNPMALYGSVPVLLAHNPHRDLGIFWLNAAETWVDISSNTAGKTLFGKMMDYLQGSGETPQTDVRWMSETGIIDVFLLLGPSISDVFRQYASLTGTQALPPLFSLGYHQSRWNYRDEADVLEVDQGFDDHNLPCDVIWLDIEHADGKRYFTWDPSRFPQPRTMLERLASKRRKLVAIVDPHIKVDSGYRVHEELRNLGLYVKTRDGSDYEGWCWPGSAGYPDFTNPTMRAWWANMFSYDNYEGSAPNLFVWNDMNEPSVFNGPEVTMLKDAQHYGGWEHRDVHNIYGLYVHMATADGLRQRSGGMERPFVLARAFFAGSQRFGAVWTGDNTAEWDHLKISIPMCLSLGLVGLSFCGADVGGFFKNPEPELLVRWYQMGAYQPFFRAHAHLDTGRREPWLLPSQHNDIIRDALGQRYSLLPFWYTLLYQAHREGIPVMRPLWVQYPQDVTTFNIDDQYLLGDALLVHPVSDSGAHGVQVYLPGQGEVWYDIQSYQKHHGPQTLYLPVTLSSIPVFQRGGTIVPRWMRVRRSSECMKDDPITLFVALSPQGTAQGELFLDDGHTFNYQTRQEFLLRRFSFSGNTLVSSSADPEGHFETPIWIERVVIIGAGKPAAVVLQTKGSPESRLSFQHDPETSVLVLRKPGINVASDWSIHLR

[6] = species on record: Rattus norvegicus; test: Inhibition of rat liver alpha-glucosidase 2 assessed as conversion of Glc2Man7GlcNAc2 to Glc1Man7GlcNAc2 at 500 uM after 1.25 hrs
[7] = test system: T1, Lysosomal acid glucosylceramidase (Homo sapiens), P04062 [N409S]; test: Activation of beta-glucocerebrosidase in human N370S cells assessed as increase of residual activity at 0.05 to 100 uM after 3 days relative to control; assay type: cell-based
[8] = molecular target: T3, Neutral alpha-glucosidase AB (Homo sapiens); test: Inhibition of endoplasmic reticulum alpha-glucosidase 2 in human HL-60 cells assessed as free oligosaccharide level at 50 uM after 24 hrs; assay type: cell-based
[9] = test system: HL-60; test: Inhibition of endoplasmic reticulum alpha-glucosidase 1 in human HL-60 cells assessed as free oligosaccharide level at 50 uM after 24 hrs; assay type: cell-based
[10] = species on record: Rattus norvegicus; test: Inhibition of rat liver alpha-glucosidase 2 assessed as conversion of Glc2Man7GlcNAc2 to Glc1Man7GlcNAc2 at 100 uM after 1.25 hrs
[11] = species on record: Rattus norvegicus; test: Inhibition of rat liver alpha-glucosidase 2 assessed as conversion of Glc2Man7GlcNAc2 to Man7GlcNAc2 at 100 uM after 1.25 hrs

In the case of `CCCCN1[C@@H]2CC[C@@]1(O)[C@@H](O)[C@H](O)[C@H]2CO`, the Activity [1] is reported as “inactive” and the IC50 [2] is reported as 100 µM.
`OC[C@@H]1[C@@H](O)[C@H](O)[C@]2(O)CC[C@H]1N2` [NOEUROSTEGINE] was tested, and the inhibition [3] was “inactive”, the inhibition [4] was “inactive” and the inhibition [5] was “inactive”. For the same molecule, the inhibition [6] was “inactive”, the fold change (FC) [7] was 1.82 and the IC50 [2] was 0.4 µM.
With `CCCCN1C[C@H](O)[C@@H](O)[C@H](O)[C@H]1CO` the inhibition [8] was “Active”, the inhibition [9] was “Active” and the inhibition [10] was “Active”. The inhibition [11] was “Active”.
For `CCCCCCCCCN1[C@@H]2CC[C@@]1(O)[C@@H](O)[C@H](O)[C@H]2CO`, the Activity [1] was “inactive” and the IC50 [2] was 60 µM.
`O[C@@H]1[C@@H](O)[C@H](O)[C@]2(O)CC[C@H]1N2` [CALYSTEGINE B2] gave an IC50 [2] of 1 µM.
